Measurements reported in US4880817A, “O-functionalized derivatives of substituted isoquinolin-3-ols having cardiotonic and/or phosphodiesterase fraction III inhibiting properties and/or renal vasodilating properties” (Ortho Pharmaceutical Corporation, priority 1987, dated 1989).
Like-named read-outs stand apart in the source and are kept apart here.

Test system: adult mongrel dogs
Assay: Renal vasodilating activity in anesthetized dogs
Assay type: in vivo, mongrel dog
Details: for change in vivo at 1.2 mg/kg / change in vivo at 6.2 mg/kg / change in vivo at 0.3 mg/kg: Canis lupus familiaris
Procedure: Goldberg et al., J. Pharmacol. Exp. Ther., 163, 188 (1968), performed an investigation of the structural requirements for dopamine-like renal vasodilation of phenethylamines and apomorphine. The following procedure is a variation of the assay described in that report.
Adult mongrel dogs were anesthetized and surgically prepared for electromagnetic measurement of renal artery blood flow. A carotid artery was cannulated for measuring arterial blood pressure and drugs were administered intravenously or intraarterially (via the renal artery). Heart rate was monitored with a cardiotachometer. Renal vascular resistance was calculated as the ratio of mean arterial blood pressure to renal artery blood flow. Dopamine was infused intravenously at 3 μg/kg/min for ten minutes (at an infusion rate of about 1 ml/min) to determine responsiveness of each dog to renal dopamine receptor stimulation. Cumulative dose-response data were obtained by infusing a compound of this invention at progressively increasing (usually three-fold) infusion rates, each dose being infused for five minutes. The maximum percent change from pre-drug control in renal artery blood flow (or in renal vascular resistance) was determined for each infusion dose.
RBF, RVR, MABP, and HR values are percent changes in renal blood flow, renal vascular resistance, mean arterial blood pressure, and heart rate, respectively, relative to control values.

[1] = dose 1.2 mpk, relative to controls, read-out: HR: percent change in heart rate
[2] = dose 1.2 mpk, relative to controls, read-out: MABP: percent change in mean arterial blood pressure
[3] = dose 1.2 mpk, relative to controls, read-out: RBF: percent change in renal blood flow
[4] = dose 1.2 mpk, relative to controls, read-out: RVR: percent change in renal vascular resistance
[5] = read-out: HR: percent change in heart rate, dose 6.2 mpk, relative to controls
[6] = read-out: MABP: percent change in mean arterial blood pressure, dose 6.2 mpk, relative to controls
[7] = read-out: RBF: percent change in renal blood flow, dose 6.2 mpk, relative to controls
[8] = read-out: RVR: percent change in renal vascular resistance, dose 6.2 mpk, relative to controls
[9] = read-out: HR: percent change in heart rate, dose 1.2 mpk, relative to controls
[10] = read-out: MABP: percent change in mean arterial blood pressure, dose 1.2 mpk, relative to controls
[11] = read-out: RBF: percent change in renal blood flow, dose 1.2 mpk, relative to controls
[12] = read-out: RVR: percent change in renal vascular resistance, dose 1.2 mpk, relative to controls
[13] = dose 1.2 mpk, relative to controls, 1.2 mg/kg

Row | Compound | change in vivo at 1.2 mg/kg [9] [%] | change in vivo at 1.2 mg/kg [10] [%] | change in vivo at 1.2 mg/kg [11] [%] | change in vivo at 1.2 mg/kg [12] [%] | further results
1 | CCN(CC)C(=O)Oc1nc(C)c2cc(OC)c(OC)cc2c1NC(=O)Nc1ccc(OC)cc1 [Cmpd 51] | – | – | – | – | change in vivo at 1.2 mg/kg [1]: 25%; change in vivo at 1.2 mg/kg [2]: -6%; change in vivo at 1.2 mg/kg [3]: 17%; change in vivo at 1.2 mg/kg [4]: -20%
2 | COc1cc2c(C)nc(OC(=O)N3CCCC3)c([N+](=O)[O-])c2cc1OC [Cmpd 52] | – | – | – | – | change in vivo at 6.2 mg/kg [5]: 0%; change in vivo at 6.2 mg/kg [6]: -15%; change in vivo at 6.2 mg/kg [7]: 41%; change in vivo at 6.2 mg/kg [8]: -37%
3 | CCCCNC(=O)Nc1c(OC(=O)N2CCCC2)nc(C)c2cc(OC)c(OC)cc12 [Cmpd 55] | 2 | -4 | 14 | -14 | –
4 | CCCCNC(=O)Nc1c(OC(=O)N(c2ccccc2)c2ccccc2)nc(C)c2cc(OC)c(OC)cc12 [Cmpd 57] | 7 | 4 | 28 | -18 | –
5 | C=CCNC(=O)Nc1c(OC(=O)N2CCCC2)nc(C)c2cc(OC)c(OC)cc12 [Cmpd 59] | 2 | 1 | 23 | -16 | –
6 | C=CCNC(=O)Nc1c(OC(=O)N(c2ccccc2)c2ccccc2)nc(C)c2cc(OC)c(OC)cc12 [Cmpd 60] | 8 | 4 | 27 | -17 | –
7 | CCCCNC(=O)Nc1c(OC(=O)N(C(C)C)C(C)C)nc(C)c2cc(OC)c(OC)cc12 [Cmpd 61] | 11 | -1 | 47 | -32 | –
8 | C=CCNC(=O)Nc1c(OC(=O)N(C(C)C)C(C)C)nc(C)c2cc(OC)c(OC)cc12 [Cmpd 62] | 0 | 11 | 17 | -5 | –
9 | CCCCNC(=O)Nc1c(OS(=O)(=O)N(C)C)nc(C)c2cc(OC)c(OC)cc12 [Cmpd 64] | – | – | – | – | change in vivo at 1.2 mg/kg [1]: 0%; change in vivo at 1.2 mg/kg [2]: 4%; change in vivo at 1.2 mg/kg [3]: 15%; change in vivo at 1.2 mg/kg [4]: -9%
10 | C=CCNC(=O)Nc1c(OS(=O)(=O)N(C)C)nc(C)c2cc(OC)c(OC)cc12 [Cmpd 65] | – | – | – | – | change in vivo at 1.2 mg/kg [1]: -7%; change in vivo at 1.2 mg/kg [2]: -1%; change in vivo at 1.2 mg/kg [3]: 25%; change in vivo at 1.2 mg/kg [4]: -22%
11 | C=CCNC(=O)Nc1c(OC(=O)N(C)C)nc(C)c2cc(OC)c(OC)cc12 [Cmpd 67] | 0 | – | – | – | MABP: percent change in mean arterial blood pressure [13]: +7 percent change; RBF: percent change in renal blood flow [13]: +50 percent change; RVR: percent change in renal vascular resistance [13]: -28 percent change
12 | COc1cc2c(C)nc(OC(=O)N3CCN(C(=O)OC(C)(C)C)CC3)c([N+](=O)[O-])c2cc1OC [Cmpd 68] | – | – | – | – | change in vivo at 0.3 mg/kg (read-out: HR: percent change in heart rate, dose 0.3 mpk, relative to controls): 11%; change in vivo at 0.3 mg/kg (read-out: MABP: percent change in mean arterial blood pressure, dose 0.3 mpk, relative to controls): -1%; change in vivo at 0.3 mg/kg (read-out: RBF: percent change in renal blood flow, dose 0.3 mpk, relative to controls): 17%; change in vivo at 0.3 mg/kg (read-out: RVR: percent change in renal vascular resistance, dose 0.3 mpk, relative to controls): -13%
13 | CCOc1cc2c(C)nc(OC(=O)N3CCN(C(=O)OC(C)(C)C)CC3)c([N+](=O)[O-])c2cc1OC [Cmpd 69] | – | – | – | – | change in vivo at 6.2 mg/kg [5]: 21%; change in vivo at 6.2 mg/kg [6]: 6%; change in vivo at 6.2 mg/kg [7]: 24%; change in vivo at 6.2 mg/kg [8]: -14%
14 | C=CCNC(=O)Nc1c(OC(=O)N2CCN(C(=O)OC(C)(C)C)CC2)nc(C)c2cc(OC)c(OC)cc12 [Cmpd 75] | 12 | 9 | 27 | -15 | –
15 | CCCCNC(=O)Nc1c(OC(=O)N2CCN(C(=O)OC(C)(C)C)CC2)nc(C)c2cc(OC)c(OC)cc12 [Cmpd 76] | -9 | -2 | 23 | -22 | –
16 | COc1cc2c(C)nc(OCOC(=O)C(C)(C)C)c([N+](=O)[O-])c2cc1OC [Cmpd 77] | – | – | – | – | change in vivo at 6.2 mg/kg (dose 6.2 mpk, relative to controls, read-out: HR: percent change in heart rate): 5%; change in vivo at 6.2 mg/kg (dose 6.2 mpk, relative to controls, read-out: MABP: percent change in mean arterial blood pressure): -3%; change in vivo at 6.2 mg/kg (dose 6.2 mpk, relative to controls, read-out: RBF: percent change in renal blood flow): 7%; change in vivo at 6.2 mg/kg (dose 6.2 mpk, relative to controls, read-out: RVR: percent change in renal vascular resistance): -8%
